Target: T1, UIS3 (PfUIS3) (Plasmodium falciparum, UniProt Q8IEU1)
T1 construct: gene PF3D7_1302200; recombinant His-mycUIS3, His tag cleaved; with LC3
Test: ITC, C4 ([…]) titrated into a saturated solution of UIS3 with LC3, one-site model
Assay type: binding

T1 sequence (Q8IEU1 entry or part of it): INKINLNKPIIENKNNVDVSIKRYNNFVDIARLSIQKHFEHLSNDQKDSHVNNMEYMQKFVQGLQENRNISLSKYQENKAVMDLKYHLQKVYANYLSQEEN

N#Cc1ccc(C(=O)N2CCN(Cc3ccc(-c4noc(-c5cccc(C(F)(F)F)c5)n4)cc3)CC2)cc1 [C4, 4-{[4-(4-{5-[3-(trifluoromethyl)phenyl]-1,2,4-oxadiazol-3-yl}benzyl)piperazino]carbonyl}benzonitrile]
Kd: 241 nM

Source: publication PMC7677311, “Disrupting Plasmodium UIS3–host LC3 interaction with a small molecule causes parasite elimination from host cells” (Communications Biology, 2020)
